Source: ChEMBL document CHEMBL4627402, “Design and Synthesis of Styrenylcyclopropylamine LSD1 Inhibitors” (ACS Med Chem Lett, 2020)
Activity calls are given as the source filed them. The rule behind the calls is not given here.

Tests used:
[1] = system: Kasumi 1; test: Growth inhibition on human Kasumi-1 cells measured upto 12 days by Cell Titer-Glo luminescent cell viability assay; assay type: functional; settings: Kasumi 1, 288 h
[2] = Metabolic stability in mouse liver microsomes assessed as intrinsic clearance; assay type: ADME, Microsome; settings: read-out: CLH
[3] = Metabolic stability in rat liver microsomes assessed as intrinsic clearance; assay type: ADME, Microsome; settings: read-out: CLH
[4] = Metabolic stability in dog liver microsomes assessed as intrinsic clearance; assay type: ADME, Canis lupus familiaris, Microsome; settings: read-out: CLH
[5] = Metabolic stability in human liver microsomes assessed as intrinsic clearance; assay type: ADME, Microsome; settings: read-out: CLH
[6] = target: T1, Lysine-specific histone demethylase 1A (Homo sapiens, UniProt O60341)
Description: Inhibition of LSD1 in human MV4-11 cells assessed as induction of LY96 mRNA expression incubated for 16 hrs by chemiluminescent method

[7] = target: T1, Lysine-specific histone demethylase 1A; remark: listed apart in the source
[8] = target: T1, Lysine-specific histone demethylase 1A; remark: listed apart in the source
[9] = target: T1, Lysine-specific histone demethylase 1A; remark: listed apart in the source
[10] = target: T1, Lysine-specific histone demethylase 1A; remark: listed apart in the source
[11] = Protein binding in plasma (unknown origin) assessed as parent compound remaining; assay type: ADME, cell-free
[12] = system: MOLM-13; test: Growth inhibition on human MOLM13 cells measured upto 12 days by Cell Titer-Glo luminescent cell viability assay; assay type: functional; settings: MOLM-13, 288 h
[13] = target: T2, Amine oxidase [flavin-containing] B (Homo sapiens, UniProt P27338); test: Inhibition of MAO-B (unknown origin)
T2 sequence (P27338 whole entry): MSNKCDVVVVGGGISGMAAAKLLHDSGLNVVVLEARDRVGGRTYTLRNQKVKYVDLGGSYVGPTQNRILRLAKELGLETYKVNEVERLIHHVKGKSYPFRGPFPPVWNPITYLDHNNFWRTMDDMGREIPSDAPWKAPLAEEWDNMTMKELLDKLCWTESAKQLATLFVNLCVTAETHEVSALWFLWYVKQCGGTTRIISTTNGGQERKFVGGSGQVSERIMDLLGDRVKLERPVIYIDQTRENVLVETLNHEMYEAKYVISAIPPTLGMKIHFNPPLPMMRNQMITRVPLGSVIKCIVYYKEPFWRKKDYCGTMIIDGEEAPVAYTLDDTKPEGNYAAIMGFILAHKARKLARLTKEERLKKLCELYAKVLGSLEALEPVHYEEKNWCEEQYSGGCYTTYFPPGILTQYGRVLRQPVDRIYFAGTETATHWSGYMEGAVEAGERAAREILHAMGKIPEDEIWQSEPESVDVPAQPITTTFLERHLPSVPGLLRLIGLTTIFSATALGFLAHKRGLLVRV

[14] = target: T3, Amine oxidase [flavin-containing] A (Homo sapiens, UniProt P21397); test: Inhibition of MAO-A (unknown origin)
T3 sequence (P21397 whole entry): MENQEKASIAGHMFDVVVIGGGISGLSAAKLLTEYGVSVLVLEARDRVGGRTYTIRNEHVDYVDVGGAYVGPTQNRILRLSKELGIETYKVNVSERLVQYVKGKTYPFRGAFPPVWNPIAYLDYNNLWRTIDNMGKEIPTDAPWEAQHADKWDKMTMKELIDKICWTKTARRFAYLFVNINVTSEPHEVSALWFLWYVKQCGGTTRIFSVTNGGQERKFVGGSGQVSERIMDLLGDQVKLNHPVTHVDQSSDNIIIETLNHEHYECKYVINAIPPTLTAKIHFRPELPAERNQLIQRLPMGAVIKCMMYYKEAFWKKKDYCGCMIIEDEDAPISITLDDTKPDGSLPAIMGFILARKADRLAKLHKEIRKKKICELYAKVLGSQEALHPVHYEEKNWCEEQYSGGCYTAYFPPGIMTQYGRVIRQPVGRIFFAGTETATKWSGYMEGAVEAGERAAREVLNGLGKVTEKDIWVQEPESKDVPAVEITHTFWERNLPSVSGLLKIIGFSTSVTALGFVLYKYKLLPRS

[15] = system: MV4-11; test: Growth inhibition on human MV4-11 cells measured upto 12 days by Cell Titer-Glo luminescent cell viability assay; assay type: functional; settings: MV4-11, 288 h
[16] = system: NOMO-1; test: Growth inhibition on human NOMO1 cells measured upto 12 days by Cell Titer-Glo luminescent cell viability assay; assay type: functional; settings: NOMO-1, 288 h
[17] = system: OCI-AML-3; test: Growth inhibition on human OCI-AML3 cells measured upto 12 days by Cell Titer-Glo luminescent cell viability assay; assay type: functional; settings: OCI-AML-3, 288 h
[18] = system: OCI-AML-5; test: Growth inhibition on human OCI-AML5 cells measured upto 12 days by Cell Titer-Glo luminescent cell viability assay; assay type: functional; settings: OCI-AML-5, 288 h
[19] = system: SET-2; test: Growth inhibition on human SET2 cells measured upto 12 days by Cell Titer-Glo luminescent cell viability assay; assay type: functional; settings: SET-2, 288 h
[20] = system: SKM-1; test: Growth inhibition on human SKM1 cells measured upto 12 days by Cell Titer-Glo luminescent cell viability assay; assay type: functional; settings: SKM-1, 288 h
[21] = Clearance in mouse at 1 mg/kg, iv; assay type: ADME, organism-based; settings: in vivo
[22] = Volume of distribution at steady state in mouse at 1 mg/kg, iv; assay type: ADME, organism-based; settings: in vivo, read-out: Vdss
[23] = Half life in mouse at 1 mg/kg, iv; assay type: ADME, organism-based; settings: in vivo
[24] = Cmax in mouse at 5 mg/kg, po; assay type: ADME, organism-based; design: dose 5 mg/kg, route oral; settings: in vivo
[25] = AUC (0 to infinity) in mouse at 5 mg/kg, po; assay type: ADME, organism-based; design: dose 5 mg/kg, time infinity, route oral; settings: in vivo
[26] = Oral bioavailability in mouse at 5 mg/kg; assay type: ADME, organism-based; settings: in vivo
[27] = system: Kasumi 1; test: Antitumor activity against human Kasumi-1 cells xenografted in oral dosed CB17 SCID mouse assessed as tumor growth inhibition administered for 14 days; assay type: functional, organism-based
[28] = Toxicity in CB17 SCID mouse xenografted with human Kasumi-1 cells assessed body weight loss at 1.5 mg/kg, po administered for 14 days; assay type: organism-based; settings: in vivo, 336 h
[29] = Toxicity in CB17 SCID mouse xenografted with human Kasumi-1 cells assessed body weight loss at 0.5 mg/kg, po administered for 14 days; assay type: organism-based; settings: in vivo, 336 h
[30] = system: Mus musculus; test: Induction of LY96 mRNA in CB17-scid mouse xenografted with human Kasumi-1 cells at 0.5 and 1.5 mg/kg, po administered for 14 days; assay type: functional, organism-based

With `CC/C(=C\c1ccccc1)[C@@H]1C[C@H]1NC1CCN(CCO)CC1` the GI50 [1] was 3 nM, the microsomal CLint [2] was 46 µL/min/mg and the microsomal CLint [3] was 27 µL/min/mg. The microsomal CLint [4] was 106 µL/min/mg, the microsomal CLint [5] was 41 µL/min/mg and the EC50 [6] was 4 nM. For the same compound, the IC50 [7] was under 2.6 nM.

In the case of `O=C(O)c1ccc(CN2CCC(CN[C@@H]3C[C@H]3c3ccccc3)CC2)cc1` [GSK2879552], the GI50 [1] is reported as 20 nM, the Kinact [8] is reported as 0.39 min⁻¹ and the Ratio [9] is reported as 680 M⁻¹ s⁻¹. The EC50 [6] was 54 nM, the IC50 [7] was 212 nM and the Ki [10] was 9.6 nM.

`CC/C(=C\c1ccccc1)[C@@H]1C[C@H]1NC1CC2(C1)CN(C1COC1)C2` showed a GI50 [1] of 1 nM, a microsomal CLint [2] of 85 µL/min/mg and a microsomal CLint [3] of 43 µL/min/mg. It also gave a microsomal CLint [4] of 283 µL/min/mg and a microsomal CLint [5] of 49 µL/min/mg.

For `C/C(=C\c1ccccc1)[C@@H]1C[C@H]1NC1CCNCC1` (racemic), the IC50 [7] was under 2.8 nM.

For `CC/C(=C\c1ccccc1)[C@@H]1C[C@H]1NC1CC2(C1)CN(CC(F)F)C2`, the GI50 [1] was 110 nM, the microsomal CLint [2] was 883 µL/min/mg and the microsomal CLint [3] was 175 µL/min/mg. It also gave a microsomal CLint [4] of 480 µL/min/mg, a microsomal CLint [5] of 133 µL/min/mg and an EC50 [6] of 7 nM. It also gave an IC50 [7] of under 3 nM.

In the case of `CC/C(=C\c1ccccc1)[C@@H]1C[C@H]1NC1CC2(C1)CN(C(C)=O)C2`, the GI50 [1] is reported as 41 nM, the microsomal CLint [2] is reported as 76 µL/min/mg and the microsomal CLint [3] is reported as 48 µL/min/mg. The microsomal CLint [4] was 87 µL/min/mg and the microsomal CLint [5] was 18 µL/min/mg.

Work on `CC/C(=C\c1ccccc1)[C@@H]1C[C@H]1NC1CC2(CNC2)C1` yielded a GI50 [1] of 11 nM, a microsomal CLint [2] of 17 µL/min/mg and a microsomal CLint [3] of 19 µL/min/mg. For the same compound, the microsomal CLint [4] was 14 µL/min/mg and the microsomal CLint [5] was 11 µL/min/mg.

For `CC/C(=C\c1ccccc1)[C@@H]1C[C@H]1N[C@H]1CC[C@H](NCCO)CC1` (racemic), the EC50 [6] was 6 nM and the IC50 [7] was under 1.8 nM.

For `CC/C(=C\c1ccccc1)[C@@H]1C[C@H]1NC1CC2(CCN(CCO)CC2)C1`, the GI50 [1] was 1 nM, the microsomal CLint [2] was 28 µL/min/mg and the microsomal CLint [3] was 19 µL/min/mg. The microsomal CLint [4] was 39 µL/min/mg, the microsomal CLint [5] was 10 µL/min/mg and the EC50 [6] was 5 nM. For the same compound, the IC50 [7] was under 3 nM.

Work on `CC/C(=C\c1ccccc1)[C@@H]1C[C@H]1NC1CC2(C1)CN(S(C)(=O)=O)C2` yielded a GI50 [1] of 17 nM, a microsomal CLint [2] of 812 µL/min/mg and a microsomal CLint [3] of 80 µL/min/mg. For the same compound, the microsomal CLint [4] was 105 µL/min/mg and the microsomal CLint [5] was 67 µL/min/mg.

`C(=C\C1CC1NCC1CCNCC1)/c1ccccc1` (stereo not given) gave a fraction unbound [11] of at most 0.05.

`CC/C(=C\c1ccccc1)[C@@H]1C[C@H]1NC1CC2(C1)CN(CCO)C2` gave a GI50 [12] of 893 nM, an IC50 [13] of over 80 µM and an IC50 [14] of over 80 µM. The GI50 [1] was 1 nM, the microsomal CLint [2] was 25 µL/min/mg and the microsomal CLint [3] was 15 µL/min/mg. For the same compound, the microsomal CLint [4] was 41 µL/min/mg, the microsomal CLint [5] was 9 µL/min/mg and the GI50 [15] was 5 nM. It also gave a GI50 [16] of 78 nM, a GI50 [17] of 271 nM and a GI50 [18] of 332 nM. The GI50 [19] was 37 nM, the GI50 [20] was 14 nM and the Kinact [8] was 0.38 min⁻¹. It also gave a Ratio [9] of 1e+06 M⁻¹ s⁻¹, a clearance [21] of 162 mL/min/kg and a Vd [22] of 118 L/kg. For the same compound, the half-life [23] was 1520 min, the Cmax [24] was 40 ng/mL and the AUC(0-inf) [25] was 189 ng·h/mL. For the same compound, the bioavailability [26] was 59%, the TGI [27] was “Dose-dependent effect” and the Activity [28] was “<= 5%”. For the same compound, the Activity [29] was “Non-Toxic”, the Activity [30] was “Active” and the EC50 [6] was 2 nM. It also gave an IC50 [7] of under 3 nM and a Ki [10] of 6.1 nM.
